Test results as given in the supplement of paper PMC11208160.

Assay: recombinant barcode read abundance after kanamycin selection (control-corrected) (log10(CPM+1)); higher = more efficient recombination; sequences stand for … in AGTGCAGAGAAAATCGGCCAGTTTTCTCTGCCTGCAGTCCGCATGCCGT…ATTTATGCAGCGGACTGCCTTTCTCCCAAAGTGATAAACCGGACAGTATCATGGACCGGTTTTCCCGGTAATCCGTATTTGCAAGGTTGGTTTCACT; site = the 11-nt target
Procedure: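 Same pooled E. coli target screen (IS621 bridge recombinase, kanamycin selection, control-corrected CPM, mean of 2 biological replicates). Here the two core-binding nucleotides of the LTG and RTG of the bridge RNA target-binding loop are mutated. Target and donor CT cores are held constant, and the other 9 guide positions match the target. The target is read from the library oligo sequence. Molecule = full bridge RNA written as DNA: nt 1-80 from the library oligo, rest WT scaffold.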

Row | Sequence | recombinant barcode read abundance (log10)
1 | AAACATGGCTGGGTTCTAACCTGTTGCCTGC [AAACATGCTAG_LTGcore_GC_RTGcore_GC] (site AAACATGCTAG) (LTG core: GC, RTG core: GC) | 0.233
2 | AAACATGTGTGGGTTCTAACCTGTTGCCTAG [AAACATGCTAG_LTGcore_TG_RTGcore_CT] (site AAACATGCTAG) (LTG core: TG, RTG core: CT) | 0.0752
3 | AAACATGTTTGGGTTCTAACCTGTTGCCTAA [AAACATGCTAG_LTGcore_TT_RTGcore_TT] (site AAACATGCTAG) (LTG core: TT, RTG core: TT) | 0.632
4 | ACGGGACAGTGGGTTCTAACCTGTTGCAGAG [ACGGGACCTCT_LTGcore_AG_RTGcore_CT] (site ACGGGACCTCT) (LTG core: AG, RTG core: CT) | 0.111
5 | ACGGGACCATGGGTTCTAACCTGTTGCAGAG [ACGGGACCTCT_LTGcore_CA_RTGcore_CT] (site ACGGGACCTCT) (LTG core: CA, RTG core: CT) | 2.09
6 | ACGGGACCATGGGTTCTAACCTGTTGCAGTG [ACGGGACCTCT_LTGcore_CA_RTGcore_CA] (site ACGGGACCTCT) (LTG core: CA, RTG core: CA) | 0.127
7 | ACGGGACCCTGGGTTCTAACCTGTTGCAGAG [ACGGGACCTCT_LTGcore_CC_RTGcore_CT] (site ACGGGACCTCT) (LTG core: CC, RTG core: CT) | 2.22
8 | ACGGGACCTTGGGTTCTAACCTGTTGCAGTT [ACGGGACCTCT_LTGcore_CT_RTGcore_AA] (site ACGGGACCTCT) (LTG core: CT, RTG core: AA) | 0.29
9 | ACGGGACGCTGGGTTCTAACCTGTTGCAGGC [ACGGGACCTCT_LTGcore_GC_RTGcore_GC] (site ACGGGACCTCT) (LTG core: GC, RTG core: GC) | 0.151
10 | ACGGGACGTTGGGTTCTAACCTGTTGCAGAC [ACGGGACCTCT_LTGcore_GT_RTGcore_GT] (site ACGGGACCTCT) (LTG core: GT, RTG core: GT) | 0.0225
11 | ACGGGACTCTGGGTTCTAACCTGTTGCAGAG [ACGGGACCTCT_LTGcore_TC_RTGcore_CT] (site ACGGGACCTCT) (LTG core: TC, RTG core: CT) | 0.0751
12 | AGGAGGTCTTGGGTTCTAACCTGTTGCCTTT [AGGAGGTCTAG_LTGcore_CT_RTGcore_AA] (site AGGAGGTCTAG) (LTG core: CT, RTG core: AA) | 1.32
13 | AGGAGGTGGTGGGTTCTAACCTGTTGCCTAG [AGGAGGTCTAG_LTGcore_GG_RTGcore_CT] (site AGGAGGTCTAG) (LTG core: GG, RTG core: CT) | 0.165
14 | AGGAGGTGTTGGGTTCTAACCTGTTGCCTAG [AGGAGGTCTAG_LTGcore_GT_RTGcore_CT] (site AGGAGGTCTAG) (LTG core: GT, RTG core: CT) | 0
15 | AGGCCTCAATGGGTTCTAACCTGTTGCCTAG [AGGCCTCCTAG_LTGcore_AA_RTGcore_CT] (site AGGCCTCCTAG) (LTG core: AA, RTG core: CT) | 0.0132
16 | AGGCCTCCATGGGTTCTAACCTGTTGCCTTG [AGGCCTCCTAG_LTGcore_CA_RTGcore_CA] (site AGGCCTCCTAG) (LTG core: CA, RTG core: CA) | 0.128
17 | AGGCCTCCTTGGGTTCTAACCTGTTGCCTAT [AGGCCTCCTAG_LTGcore_CT_RTGcore_AT] (site AGGCCTCCTAG) (LTG core: CT, RTG core: AT) | 0.576
18 | AGGCCTCCTTGGGTTCTAACCTGTTGCCTCT [AGGCCTCCTAG_LTGcore_CT_RTGcore_AG] (site AGGCCTCCTAG) (LTG core: CT, RTG core: AG) | 0.369
19 | AGGCCTCCTTGGGTTCTAACCTGTTGCCTTC [AGGCCTCCTAG_LTGcore_CT_RTGcore_GA] (site AGGCCTCCTAG) (LTG core: CT, RTG core: GA) | 0.109
20 | AGGCCTCGCTGGGTTCTAACCTGTTGCCTGC [AGGCCTCCTAG_LTGcore_GC_RTGcore_GC] (site AGGCCTCCTAG) (LTG core: GC, RTG core: GC) | 0.137
21 | AGGCCTCTATGGGTTCTAACCTGTTGCCTAG [AGGCCTCCTAG_LTGcore_TA_RTGcore_CT] (site AGGCCTCCTAG) (LTG core: TA, RTG core: CT) | 0.0484

Row | Sequence | recombinant barcode read abundance (log10)
22 | AGGCCTCTCTGGGTTCTAACCTGTTGCCTAG [AGGCCTCCTAG_LTGcore_TC_RTGcore_CT] (site AGGCCTCCTAG) (LTG core: TC, RTG core: CT) | 0.137
23 | AGGCGGGACTGGGTTCTAACCTGTTGCGGAG [AGGCGGGCTCC_LTGcore_AC_RTGcore_CT] (site AGGCGGGCTCC) (LTG core: AC, RTG core: CT) | 0.555
24 | AGGCGGGACTGGGTTCTAACCTGTTGCGGGT [AGGCGGGCTCC_LTGcore_AC_RTGcore_AC] (site AGGCGGGCTCC) (LTG core: AC, RTG core: AC) | 0.011
25 | AGGCGGGCCTGGGTTCTAACCTGTTGCGGGG [AGGCGGGCTCC_LTGcore_CC_RTGcore_CC] (site AGGCGGGCTCC) (LTG core: CC, RTG core: CC) | 0.126
26 | AGGCGGGCTTGGGTTCTAACCTGTTGCGGAC [AGGCGGGCTCC_LTGcore_CT_RTGcore_GT] (site AGGCGGGCTCC) (LTG core: CT, RTG core: GT) | 0.13
27 | AGGCGGGCTTGGGTTCTAACCTGTTGCGGAT [AGGCGGGCTCC_LTGcore_CT_RTGcore_AT] (site AGGCGGGCTCC) (LTG core: CT, RTG core: AT) | 0.513
28 | AGGCGGGCTTGGGTTCTAACCTGTTGCGGCG [AGGCGGGCTCC_LTGcore_CT_RTGcore_CG] (site AGGCGGGCTCC) (LTG core: CT, RTG core: CG) | 0.146
29 | AGGCGGGCTTGGGTTCTAACCTGTTGCGGGA [AGGCGGGCTCC_LTGcore_CT_RTGcore_TC] (site AGGCGGGCTCC) (LTG core: CT, RTG core: TC) | 0.253
30 | AGGCGGGCTTGGGTTCTAACCTGTTGCGGTC [AGGCGGGCTCC_LTGcore_CT_RTGcore_GA] (site AGGCGGGCTCC) (LTG core: CT, RTG core: GA) | 0.246
31 | AGGCGGGGATGGGTTCTAACCTGTTGCGGTC [AGGCGGGCTCC_LTGcore_GA_RTGcore_GA] (site AGGCGGGCTCC) (LTG core: GA, RTG core: GA) | 0.133
32 | AGGCGGGGGTGGGTTCTAACCTGTTGCGGAG [AGGCGGGCTCC_LTGcore_GG_RTGcore_CT] (site AGGCGGGCTCC) (LTG core: GG, RTG core: CT) | 0.101
33 | AGGCGGGGTTGGGTTCTAACCTGTTGCGGAG [AGGCGGGCTCC_LTGcore_GT_RTGcore_CT] (site AGGCGGGCTCC) (LTG core: GT, RTG core: CT) | 0.871
34 | AGGCGGGTATGGGTTCTAACCTGTTGCGGTA [AGGCGGGCTCC_LTGcore_TA_RTGcore_TA] (site AGGCGGGCTCC) (LTG core: TA, RTG core: TA) | 0.364
35 | AGGCGGGTTTGGGTTCTAACCTGTTGCGGAA [AGGCGGGCTCC_LTGcore_TT_RTGcore_TT] (site AGGCGGGCTCC) (LTG core: TT, RTG core: TT) | 0.299
36 | AGGCGGTAATGGGTTCTAACCTGTTGCTTAG [AGGCGGTCTAA_LTGcore_AA_RTGcore_CT] (site AGGCGGTCTAA) (LTG core: AA, RTG core: CT) | 0.371
37 | AGGCGGTAATGGGTTCTAACCTGTTGCTTTT [AGGCGGTCTAA_LTGcore_AA_RTGcore_AA] (site AGGCGGTCTAA) (LTG core: AA, RTG core: AA) | 0.0996
38 | AGGCGGTCTTGGGTTCTAACCTGTTGCTTCC [AGGCGGTCTAA_LTGcore_CT_RTGcore_GG] (site AGGCGGTCTAA) (LTG core: CT, RTG core: GG) | 0.0963
39 | AGGCGGTCTTGGGTTCTAACCTGTTGCTTGT [AGGCGGTCTAA_LTGcore_CT_RTGcore_AC] (site AGGCGGTCTAA) (LTG core: CT, RTG core: AC) | 0.127
40 | AGGCGGTCTTGGGTTCTAACCTGTTGCTTTT [AGGCGGTCTAA_LTGcore_CT_RTGcore_AA] (site AGGCGGTCTAA) (LTG core: CT, RTG core: AA) | 0.0668
41 | AGGCGGTGCTGGGTTCTAACCTGTTGCTTAG [AGGCGGTCTAA_LTGcore_GC_RTGcore_CT] (site AGGCGGTCTAA) (LTG core: GC, RTG core: CT) | 0.419
